Measurements taken from PubChem BioAssay AID210 (DTP/NCI, 2004).
“And” between values parts separate entries of the source, which are not always exact repeats. Equal values may be shown once. Toxic doses and inconclusive results are not listed. Rule for the calls: active = survival T/C of 150% or more; inactive = T/C below 125% in these data.

Test system: CD2F1 mice, ip Colon 26 adenocarcinoma, median survival T/C
Assay: NCI In Vivo Anticancer Drug Screen. Data for tumor model Colon 26 Adenocarcinoma (intraperitoneal) in CD2F1 (CDF1) mice
Details: endpoint: median survival time, higher = longer survival
Description: The antitumor activity of compounds was measured in mice bearing transplantable tumors. Survival or tumor size were measured and the results are expressed as the measurement made in the treated group (T) divided by the measurement made in the vehicle treated control group (C). The tumor model used in this assay is Colon 26 Adenocarcinoma (intraperitoneal) in CD2F1 (CDF1) mice

[1] = dose: 5.0 mg/kg/injection, schedule: Q04DX003 (ip), vehicle: saline with Tween-80
[2] = dose: 20.0 mg/kg/injection, schedule: Q04DX003 (ip), vehicle: saline with Tween-80
[3] = dose: 50.0 mg/kg/injection, schedule: Q04DX002 (ip), vehicle: Klucel (hydroxypropylcellulose) (HPC)
[4] = dose: 100.0 mg/kg/injection, schedule: Q04DX002 (ip), vehicle: Klucel (hydroxypropylcellulose) (HPC)
[5] = dose: 200.0 mg/kg/injection, schedule: Q04DX002 (ip), vehicle: Klucel (hydroxypropylcellulose) (HPC)
[6] = dose: 25.0 mg/kg/injection, schedule: Q04DX003 (ip), vehicle: Klucel (hydroxypropylcellulose) (HPC)
[7] = dose: 4.0 mg/kg/injection, schedule: Q01DX009 (ip), vehicle: acid diluted with saline
[8] = dose: 8.0 mg/kg/injection, schedule: Q01DX009 (ip), vehicle: acid diluted with saline
[9] = dose: 16.0 mg/kg/injection, schedule: Q01DX009 (ip), vehicle: acid diluted with saline

Measured: T/C

Cc1cn(C2CC3[O][Sn]([c]4ccccc4)([c]4ccccc4)[O]CC3O2)c(=O)[nH]c1=O (centres undefined)
inactive: dose: 25.0 mg/kg/injection, schedule: Q04DX002 (ip), vehicle: saline 96 % of control | dose: 50.0 mg/kg/injection, schedule: Q04DX002 (ip), vehicle: saline 103 % of control | dose: 100.0 mg/kg/injection, schedule: Q04DX002 (ip), vehicle: saline 112 % of control

CSc1cc(=O)n2c3ccccc3c3ccnc1c32
inactive: dose: 2.5 mg/kg/injection, schedule: Q04DX003 (ip), vehicle: saline with Tween-80 100 % of control | [1] 115 % of control
active: [2] 151 % of control

C[C@]12CCC(=O)[C@@](C)(CO)[C@@H]1[C@H](O)C[C@H]1C[C@@H]3C[C@@]12CC[C@]3(O)CO
inactive: [1] 98 % of control | dose: 10.0 mg/kg/injection, schedule: Q04DX003 (ip), vehicle: saline with Tween-80 96 % of control | [2] 90 % of control | dose: 40.0 mg/kg/injection, schedule: Q04DX003 (ip), vehicle: saline with Tween-80 90 % of control | dose: 80.0 mg/kg/injection, schedule: Q04DX003 (ip), vehicle: saline with Tween-80 100 % of control

C[C@]12CC[C@@H]3c4ccc(O)cc4CC[C@H]3[C@@H]1CC[C@@H]2O
inactive: dose: 6.25 mg/kg/injection, schedule: Q04DX002 (ip), vehicle: Klucel (hydroxypropylcellulose) (HPC) 103 % of control | dose: 12.5 mg/kg/injection, schedule: Q04DX002 (ip), vehicle: Klucel (hydroxypropylcellulose) (HPC) 95 % of control | dose: 25.0 mg/kg/injection, schedule: Q04DX002 (ip), vehicle: Klucel (hydroxypropylcellulose) (HPC) 94 % of control | [3] 103 % of control | [4] 100 % of control | [5] 98 % of control

Cc1c[nH]c(=O)[nH]c1=O
inactive: dose: 16.0 mg/kg/injection, schedule: Q04DX002 (ip), vehicle: Klucel (hydroxypropylcellulose) (HPC) 97 % of control | dose: 32.0 mg/kg/injection, schedule: Q04DX002 (ip), vehicle: Klucel (hydroxypropylcellulose) (HPC) 101 % of control | dose: 64.0 mg/kg/injection, schedule: Q04DX002 (ip), vehicle: Klucel (hydroxypropylcellulose) (HPC) 101 % of control and 94 % of control and 96 % of control | dose: 128.0 mg/kg/injection, schedule: Q04DX002 (ip), vehicle: Klucel (hydroxypropylcellulose) (HPC) 101 % of control and 88 % of control and 95 % of control | dose: 256.0 mg/kg/injection, schedule: Q04DX002 (ip), vehicle: Klucel (hydroxypropylcellulose) (HPC) 110 % of control and 92 % of control and 97 % of control | dose: 512.0 mg/kg/injection, schedule: Q04DX002 (ip), vehicle: Klucel (hydroxypropylcellulose) (HPC) 91 % of control | dose: 1024.0 mg/kg/injection, schedule: Q04DX002 (ip), vehicle: Klucel (hydroxypropylcellulose) (HPC) 86 % of control

COC1=CC(=O)N(C(=O)C2CSC(C(CO)NC(=O)c3csc(/C=N/O)n3)=N2)C1 (centres undefined)
inactive: [3] 93 % of control | [4] 105 % of control | [5] 101 % of control | dose: 400.0 mg/kg/injection, schedule: Q04DX002 (ip), vehicle: Klucel (hydroxypropylcellulose) (HPC) 105 % of control

Cc1ccc(C(=O)[O][Hg][CH2]C2COC([CH2][Hg][O]C(=O)c3ccc(C)cc3)CO2)cc1 (centres undefined)
inactive: dose: 12.5 mg/kg/injection, schedule: Q04DX003 (ip), vehicle: Klucel (hydroxypropylcellulose) (HPC) 104 % of control | [6] 92 % of control

O=C1c2ccccc2C(=O)c2c(NCCN3CCNCC3)ccc(NCCN3CCNCC3)c21
inactive: [7] 106 % of control | [8] 114 % of control | [9] 114 % of control

CCCNCCNc1ccc(NCCNCCC)c2c1C(=O)c1ccccc1C2=O
inactive: [7] 106 % of control | [8] 98 % of control | [9] 100 % of control

C[C@]1(O)CC[C@H]2[C@@H]3CCC4=CC(=O)CC[C@]4(C)[C@@]3(F)[C@@H](O)C[C@@]21C
inactive: [6] 94 % of control | dose: 50.0 mg/kg/injection, schedule: Q04DX003 (ip), vehicle: Klucel (hydroxypropylcellulose) (HPC) 105 % of control | dose: 100.0 mg/kg/injection, schedule: Q04DX003 (ip), vehicle: Klucel (hydroxypropylcellulose) (HPC) 108 % of control | dose: 200.0 mg/kg/injection, schedule: Q04DX003 (ip), vehicle: Klucel (hydroxypropylcellulose) (HPC) 99 % of control | dose: 400.0 mg/kg/injection, schedule: Q04DX003 (ip), vehicle: Klucel (hydroxypropylcellulose) (HPC) 97 % of control

CN(C)CCCNc1cccc2c1C(=O)c1cccc(NCCCN(C)C)c1C2=O
inactive: dose: 8.0 mg/kg/injection, schedule: Q01DX009 (ip), vehicle: saline 106 % of control | dose: 16.0 mg/kg/injection, schedule: Q01DX009 (ip), vehicle: saline 100 % of control | dose: 32.0 mg/kg/injection, schedule: Q01DX009 (ip), vehicle: saline 87 % of control
